pIC50: −log10 of the molar value. Values joined by “and” are separate entries in the source; they are usually repeats but may differ in a detail not shown here. Equal entries are not always repeated. Where two headings read alike, the source gives them in different places.

In data set [1] the test system is P-glycoprotein (P-gp, MDR1). The data set can be described thus: Cell permeability MDR1-MDCK II. The following applies: dog. The format is in vitro ADME. From the text: (§1) Selected compounds were screened for aqueous solubility in PBS (pH 7.4), metabolic stability in mouse liver microsomes (MLM) as a measure of clearance, Log D, and permeability. ADME studies reported in this work were independently performed by WuXi AppTec (Shanghai, China). Raw data are provided upon request.

Data set [2] deals with MDCK-MDR1 cell line. The data set can be described thus: Cell permeability MDR1-MDCK II. The format is in vitro ADME.
Excerpt: as §1

Data set [3] is described as follows: Metabolic stability in mouse liver microsomes (MLM). The format is in vitro ADME. Particulars: mouse liver microsomes.
Excerpt: as §1

A short description of data set [4]: Log D. The format is physicochemical.
Excerpt: as §1

Data set [5] is described as follows: GSH reactivity assay (LCMS). The format is physicochemical. Particulars: 1 mM glutathione (GSH) in HEPES buffer, pH 7.5; read-out: GSH t1/2 (converted). As for the experimental part: GSH is the most abundant low molecular weight thiol compound in the cell. It protects cells from oxidative damage and the toxicity of xenobiotic electrophiles and maintains redox homeostasis.[43] We speculated that a robust and specific reaction of inhibitors would not be drastically affected by competitive cysteines in the reaction.
50 μM of each compound was incubated at room temperature with 1 mM GSH in 50 mM HEPES, 20 mM NaCl, pH 7.5, and 1.3% DMSO. At each time point, an aliquot was taken and analyzed by LCMS. The percentage of the compound remaining was determined by comparing the area of the peaks of the compound and the GSH adduct. The natural logarithm of the results was fitted to a linear regression, and t1/2 was calculated as t1/2 = ln(2)/–slope.

Data set [6] has as its system A549. The data set can be described thus: Cell proliferation assay (CellTiter-Glo), A549. The following applies: Homo sapiens, 48 h, supplementary CSV. The format is cell-based. The protocol: (§2) To further characterize the potency of the phenylproline derivatives on cancer cells, their effect on proliferation has been measured on HeLa and A549 cell lines, which are known to express S100A4.[44],[45] A cell proliferation assay was performed by cultivating cells for 48 h in complete media with various concentrations of inhibitors, up to 30 μM. At the end of the treatment, luminescence was measured after the addition of the CellTiter-Glo reagent (Figure 7A).
(§3) The day before, cells were seeded in a white, cell-culture treated 384-well plates in complete high-glucose DMEM to reach a confluency of 25% on the day of the experiment. The next day, the medium was replaced by complete, high-glucose, phenol-red-free medium, and cells were incubated for 48 h in the presence of an inhibitor or DMSO as a control. Aliquots of the supernatant were harvested, diluted 100 times in 200 mM Tris-HCl, pH 7.3, 10% glycerol, and 1% BSA buffer, and used for cyctotoxicity measurement by using the LDH-Glo cytotoxicity assay kit (Promega). In parallel, the CellTiter-Glo (Promega) reagent was added to the cells to measure cell proliferation. Both experiments were done according to the manufacturer’s recommendations, and the luminescence was quantified using the FSX plate reader (Pherastar).

A short description of data set [7]: Cytotoxicity assay (LDH-Glo), HeLa. The format is cell-based. Particulars: human, HeLa cells, supplementary CSV, read-out: HeLa Cell toxicity IC50. The protocol: as §2, §3
A short description of data set [8]: Cytotoxicity assay (LDH-Glo), A549. The format is cell-based. The following applies: human, A549 cells, supplementary CSV, read-out: A549 Cell toxicity IC50. As for the experimental part: as §2, §3
Data set [9] has as its target T1, S100A11-AnII (Homo sapiens, UniProt P31949).
T1 construct: made in house; host or cells: E. coli Rosetta (DE3); peptide from LifeTein
T1 sequence (P31949 1-105): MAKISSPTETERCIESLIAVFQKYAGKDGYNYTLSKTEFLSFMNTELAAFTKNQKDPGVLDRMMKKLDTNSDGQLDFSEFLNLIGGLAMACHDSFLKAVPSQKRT
Description: HTRF (TR-FRET) peptide displacement S100A11-AnII. The format is binding. The following applies: supplementary CSV. As for the experimental part:
Table S4: Compound IDs and SMILES … S30 […]
Peptide displacement assay development
addition of an inhibitor.
Assay was done in 384-well
After 2 hours of incubation at
concentration range to avoid the saturation of the signal.

The subject of data set [10] is HeLa. The data set can be described thus: Cell proliferation assay (CellTiter-Glo), HeLa. The format is cell-based. The following applies: Homo sapiens, 48 h, supplementary CSV. As for the experimental part: as §2, §3
For orientation: Cellular ATP, detected with luciferase, serves as a proxy for viable cell number.

Data set [11] in a line: Aqueous solubility in PBS (pH 7.4). The format is physicochemical.
Excerpt: as §1

The subject of data set [12] is S100A4. Further details: method as in PMID 20421509. Particulars: by inducing oligomerization; read-out: IC50 S100A4 inhibition; cited from earlier work.

With `O=C(NC1CCCc2ccccc21)[C@H]1C[C@H](c2ccccc2)CN1C(=O)CCl` (stereo partly drawn) [5b], the Papp (in general, a coefficient for how fast a substance crosses the barrier) in data set [1] (MDCK-MDR1, A to B, read-out: MDR1-MDCK II, AB Papp) was 3.8 ×10⁻⁶ cm/s; in data set [1] (MDCK-MDR1, B to A, read-out: MDR1-MDCK II, BA Papp) it was 34.5 ×10⁻⁶ cm/s. The “cell permeability MDCK-MDR1 (in words)” value in [2] is listed as “good permeability without efflux”. Besides, the “MLM, Cli” value in [3] is given as 778 μL/min/mg protein. Also, in data set [3] (read-out: MLM, T1/2), the half-life is 2 min. The logD – broadly, the decadic logarithm of the distribution of all forms, ionised or not, between an organic phase and buffer at a given pH – in [4] worked out at 3.74. In addition, the half-life at 50 μM in data set [5] is 5.7 h. Moreover, the negative logarithm of the IC50 (pIC50) (as a rule, the negative decadic logarithm of the IC50, by convention in mol/L) in data set [6] is 4.66; in [9], under 4.52; in [10], 5.59. Also, the IC50 (commonly the concentration that inhibits the measured activity by half) at 48 h in data set [7] was determined as 29.9 µM; in data set [8], 29.7 µM. Also, the “aqueous solubility (in words)” value in data set [11] is on record as “good solubility”. The solubility (as a rule, how much of the substance goes into solution per volume) in [11] (aqueous buffer, PBS pH 7.4, read-out: aq. solubility) is 45.7 µg/mL and 115 µM.
For `c1ccc2c(c1)Nc1ccccc1S2` [phenothiazine], in data set [12], the pIC50 is about 4.00.

The values above are taken from paper PMC11571109, “Covalent Inhibitors of S100A4 Block the Formation of a Pro-Metastasis Non-Muscle Myosin 2A Complex” (Journal of Medicinal Chemistry, 2024).
